Results: patent US9187486B2 (AMGEN INC., priority 2011, dated 2015)
Like-named read-outs stand apart in the source and are kept apart here. Blank lines part the entries; values can stand above or below the compound they belong to.

Key:
Pim-1 [1] = biological target: T1, Pim-1 (Homo sapiens (Human), UniProt P11309); experiment: Pim-Mn enzyme assay (HTRF, 384-well), Pim-1; assay type: biochemical; conditions: Pim-1 enzyme 5 pM, ATP […], read-out: Pim-1-Mn IC50 IP
Excerpt: (§1) Full-length human cDNAs encoding Pim-1 (MGC ID 3913552) or Pim-2 (IMAGE ID 5092935) were purchased from Invitrogen, Carlsbad, Calif. These cDNAs were used as templates in PCR reactions to produce full-length DNA clones of the PIMs. Oligonucleotide PCR primers for Pim-1 were 5′-[…]-3′ and 5′-[…]-3′. Oligonucleotide PCR primers for Pim-2 were 5′-[…]-3′ and 5′-[…]-3′. PCR products were digested with BclI and EcoRI for Pim-1 and BamHI and EcoRI for Pim-2 and ligated into a modified baculovirus transfer vector (pFastBac 1) cleaved with BamHI and EcoRI. […]
(§2) The frozen cell pellets were thawed by stirring in chilled lysis buffer (0.05 M HEPES, pH 8.0, 0.25 M NaCl, 0.01 M 2-mercaptoethanol, 10% (w/v) glycerol, 0.5% (v/v) protease inhibitor cocktail (Sigma P-8340) at a ratio of 1 L/200 g cells until homogeneous. The thawed suspension was applied to a microfluidizer at 10,000 PSI to disrupt the cells and the whole lysates were clarified by centrifugation at 50,000×g for 90 min, 4° C. Imidazole was added to the clarified lysate to a final concentration of 2.5 mM and the lysate was mixed with 10 mL of Talon resin (Clontech) and the slurry rocked gently overnight at 4° C. […] Fractions were analyzed by SDS-PAGE and those containing the protein of interest were pooled and concentrated. […] The protein eluted at a retention time indicative of it being monomeric and fractions were analyzed by SDS-PAGE. […]

Pim-2 [2] = biological target: T2, Pim-2 (Homo sapiens (Human), UniProt Q9P1W9); experiment: Pim-Mn enzyme assay (HTRF, 384-well), Pim-2; assay type: biochemical; conditions: Pim-2 enzyme 0.5 pM, ATP […], read-out: Pim-2-Mn IC50 IP
T2 sequence (Q9P1W9 whole entry): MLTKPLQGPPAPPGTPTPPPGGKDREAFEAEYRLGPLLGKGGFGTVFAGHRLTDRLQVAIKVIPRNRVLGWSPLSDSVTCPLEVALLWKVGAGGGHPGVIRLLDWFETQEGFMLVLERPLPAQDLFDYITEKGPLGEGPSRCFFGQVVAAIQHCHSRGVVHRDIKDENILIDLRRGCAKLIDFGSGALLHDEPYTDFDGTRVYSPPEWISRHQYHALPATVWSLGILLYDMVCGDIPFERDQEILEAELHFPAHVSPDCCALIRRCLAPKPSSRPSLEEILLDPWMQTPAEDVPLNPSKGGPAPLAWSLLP
Excerpt: as §1, §2

Pim-2 [3] = biological target: T2, Pim-2; experiment: Pim enzyme assay (HTRF, phosphorylation of biotinylated-BAD (S112) peptide), Pim-2; assay type: biochemical
Method in brief: (§3)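 Full-length human Pim-1 or Pim-2 with an N-terminal His6 tag, expressed in Sf9 or E. coli and purified as monomer. HTRF read-out: biotinylated BAD (S112) peptide phosphorylation detected with streptavidin-APC plus Eu-anti-phospho-BAD(S112) antibody, excitation 337 nm, emission 665 nm.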

[4] = test system: KMS-12-BM myeloma cell line; experiment: Pim cell assay: phospho-BAD (S112) and total BAD in KMS-12-BM cells; assay type: cell-based; conditions: 1 hour and 50 minutes incubation
Method in brief: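 KMS-12-BM myeloma cells, after overnight culture, got a 10-point compound dose series (0.3% DMSO) for 1 h 50 min at 37 °C. Lysates measured for phospho-BAD (S112) and total BAD by MSD immunoassay; % phosphoprotein = 2×phospho/(phospho+total)×100.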

Pim-1 [5] = biological target: T1, Pim-1; experiment: Pim enzyme assay (HTRF, phosphorylation of biotinylated-BAD (S112) peptide), Pim-1; assay type: biochemical
Method in brief: as §3

[6] = full length recombinant Pim-2, biotinylated-BAD (S112) peptide, HTRF, read-out: Pim2_IC50
[7] = Homo sapiens, KMS-12-BM, read-out: KMS12_Cell_IC50
[8] = full length recombinant Pim-1, biotinylated-BAD (S112) peptide, HTRF, read-out: Pim_1_IC50
[9] = Homo sapiens, KMS-12-BM, read-out: KMS-12-BM IC50 IP
[10] = full length recombinant Pim-1, biotinylated-BAD (S112) peptide, HTRF, 96-well, read-out: Pim-1 IC50 IP

T1 sequence (P11309 whole entry): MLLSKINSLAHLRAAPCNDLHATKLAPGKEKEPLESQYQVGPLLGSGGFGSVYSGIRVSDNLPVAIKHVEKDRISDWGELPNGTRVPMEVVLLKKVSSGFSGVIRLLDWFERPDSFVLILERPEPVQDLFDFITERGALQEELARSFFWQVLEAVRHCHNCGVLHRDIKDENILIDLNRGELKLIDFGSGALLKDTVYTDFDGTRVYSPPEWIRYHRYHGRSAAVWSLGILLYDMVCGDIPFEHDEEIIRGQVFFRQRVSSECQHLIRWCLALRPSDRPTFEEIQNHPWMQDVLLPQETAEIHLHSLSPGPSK

Compound: Fc1cccc(F)c1-c1ccc2cnc(Nc3cnccc3C3=CCNCC3)n2n1 [Example 105, 2-(2,6-Difluorophenyl)-N-(1′,2′,3′,6′-tetrahydro-[4,4′-bipyridin]-3-yl)imidazo[1,5-b]pyridazin-7-amine bis(2,2,2-trifluoroacetate)]
IC50 (Pim-1 [1]): 35 nM
IC50 (Pim-2 [2]): 1050 nM

Compound: Cc1noc(C)c1-c1ccncc1Nc1ncc2ccc(-c3c(F)cccc3F)nn12 [Example 106, 2-(2,6-Difluorophenyl)-N-(4-(3,5-dimethylisoxazol-4-yl)pyridin-3-yl)imidazo[1,5-b]pyridazin-7-amine bis(2,2,2-trifluoroacetate)]
IC50 (Pim-1 [1]): 221 nM
IC50 (Pim-2 [2]): > 5000 nM

Compound: O[C@H]1CCN(c2ccncc2Nc2ncc3ccc(-c4c(F)cccc4F)nn23)C[C@@H]1O (mixture of isomers) [Example 25, (3S,4S)-1-(3-((2-(2,6-difluorophenyl)imidazo[1,5-b]pyridazin-7-yl)amino)-4-pyridinyl)-3,4-piperidinediol and (3R,4R)-1-(3-((2-(2,6-difluorophenyl)imidazo[1,5-b]pyridazin-7-yl)amino)-4-pyridinyl)-3,4-piperidinediol (1/1)]
IC50 (Pim-2 [3]; read-out: Pim2_IC50): 8 nM
IC50 ([4]; read-out: KMS12_Cell_IC50): 777 nM
IC50 (Pim-1 [5]; read-out: Pim_1_IC50): 2 nM

Compound: Nc1cccc(-c2ccncc2Nc2ncc3ccc(-c4c(F)cccc4F)nn23)c1 [Example 27, N-(4-(3-aminophenyl)-3-pyridinyl)-2-(2,6-difluorophenyl)imidazo[1,5-b]pyridazin-7-amine]
IC50 (Pim-2 [3]; [6]): 121 nM
IC50 [4, 7]: > 1000 nM
IC50 (Pim-1 [5]; [8]): 9 nM

Compound: N[C@H]1CCCN(c2ccncc2Nc2nnc3ccc(-c4ncccc4F)nn23)C1 [Example 91, N-(4-((3S)-3-amino-1-piperidinyl)-3-pyridinyl)-6-(3-fluoro-2-pyridinyl)[1,2,4]triazolo[4,3-b]pyridazin-3-amine bis(2,2,2-trifluoroacetate)]
IC50 (Pim-2 [3]; read-out: Pim-2 IC50 IP): 30.5 nM
IC50 [4, 9]: 11300 nM
IC50 (Pim-1 [5]; [10]): 5.6 nM

Second part, the compound after the results:

IC50 (Pim-2 [3]; [6]): 0.5 nM
IC50 [4, 7]: 1400 nM
IC50 (Pim-1 [5]; [8]): 0.1 nM
Compound: C[C@H]1CN(c2ccncc2Nc2ncc3ccc(-c4ccc(S(C)(=O)=O)cc4F)nn23)C[C@@H](N)[C@@H]1O [Example 23, (3R,4R,5S)-3-amino-1-(3-((2-(2-fluoro-4-(methylsulfonyl)phenyl)imidazo[1,5-b]pyridazin-7-yl)amino)-4-pyridinyl)-5-methyl-4-piperidinol]

IC50 (Pim-2 [3]; [6]): 99 nM
IC50 [4, 7]: 10300 nM
IC50 (Pim-1 [5]; [8]): 14 nM
Compound: Fc1cccc(F)c1-c1ccc2cnc(Nc3cnccc3OC3CNC3)n2n1 [Example 9, N-(4-(3-azetidinyloxy)-3-pyridinyl)-2-(2,6-difluorophenyl)imidazo[1,5-b]pyridazin-7-amine]

IC50 (Pim-2 [3]; [6]): 185 nM
IC50 [4, 7]: 21500 nM
IC50 (Pim-1 [5]; [8]): 7 nM
Compound: Nc1cc(-c2ccncc2Nc2ncc3ccc(-c4c(F)cccc4F)nn23)ccn1 [Example 30, N3′-(2-(2,6-difluorophenyl)imidazo[1,5-b]pyridazin-7-yl)-4,4′-bipyridine-2,3′-diamine]

IC50 (Pim-2 [3]; full length recombinant Pim-2, biotinylated-BAD (S112) peptide, HTRF, 96-well, read-out: Pim-2 IC50 IP): 1.3 nM
IC50 [4, 9]: 235 nM
IC50 (Pim-1 [5]; [10]): 0.3 nM
Compound: C[C@@H]1C[C@H](N)CN(c2ccncc2Nc2ncc3ccc(-c4ccccn4)nn23)C1 (relative stereo) [Example 63, N-(4-((cis)-3-amino-5-methylpiperidin-1-yl)pyridin-3-yl)-2-(pyridin-2-yl)imidazo[1,5-b]pyridazin-7-amine]
